The target of the assay is purified CK2α enzyme (Homo sapiens, UniProt P68400). Description: CK2 Protein Kinase Inhibition Assay (coupled PK/LDH assay). Particulars: CK2 enzyme 25 nM, 100 μM ATP, 37° C., Morrison equation. The format is biochemical. Here is the method: A coupled PK (pyruvate kinase)/LDH (lactate dehydrogenase) assay was used to measure compounds' ability to inhibit purified CK2α enzyme.
The ADP product of kinase CK2a is the cofactor for PK. Phospho(enol)pyruvate (PEP) PEP is metabolized by pyruvate kinase to yield pyruvate, which is the substrate for LDH.
Serially diluted compounds were pre-incubated for 10 min at 37° C. with and 1.5 mM […] peptide substrate, 6 U/ml PK and 10 U/ml LDH (purchased from Sigma-Aldrich), 100 μM ATP, 1.2 mM NADH, 4 mM PEP in the reaction buffer (50 mM Tris (pH 8.25), 0.1 M NaCl, 10 mM magnesium acetate). The reaction was initiated by the addition of an equal volume of purified CK2 enzyme (final concentration 25 nM) diluted in the reaction buffer. Absorbance at 340 nm was measured overtime (for 30 min) at 37° C.; as NADH was converted to NAD+ the absorbance decreases. Absorbance decrease rate (per min) was plotted against the compound concentration and Ki is determined by GraphPad Prism using Morrison equation. All data points were performed in triplicate and each compound was tested in at least two separate experiments.
To this end, K, values of less than 2.5 nM are labelled as “+++”, from 2.5 nM to 10 nM are labelled as “++”, and greater than 10 nM are labelled as “+”.

The results in this text go back to patent publication US10227344B2, “CK2 inhibitors, compositions and methods thereof” (Polaris Pharmaceuticals, Inc., priority 2016, dated 2019).

Structures are written as SMILES. Structures can show the parent of a compound that is named as a salt. Bounds are passed on as bounds.

purified CK2α enzyme, sequence (P68400 whole entry): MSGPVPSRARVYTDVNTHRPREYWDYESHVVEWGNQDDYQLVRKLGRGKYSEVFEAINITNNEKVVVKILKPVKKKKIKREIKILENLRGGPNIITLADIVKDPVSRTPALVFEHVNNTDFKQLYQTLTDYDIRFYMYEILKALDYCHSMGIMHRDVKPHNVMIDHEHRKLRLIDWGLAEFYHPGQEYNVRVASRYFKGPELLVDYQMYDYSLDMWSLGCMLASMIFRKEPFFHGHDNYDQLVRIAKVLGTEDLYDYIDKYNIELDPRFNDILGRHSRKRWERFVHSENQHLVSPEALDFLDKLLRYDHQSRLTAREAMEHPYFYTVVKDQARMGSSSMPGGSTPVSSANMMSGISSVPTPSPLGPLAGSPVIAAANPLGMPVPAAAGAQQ

The compound `CS(=O)(=O)Cc1cc(Nc2cc(NC3CC3)n3ncc(C#N)c3n2)ccc1N1CC(N)C1` [Example 41, 5-((4-(3-Aminoazetidin-1-yl)-3-((methylsulfonyl)methyl)phenyl)amino)-7-(cyclopropylamino)pyrazolo[1,5-a]pyrimidine-3-carbonitrile] registered a Ki of 2.5 to 10 nM.
Take `C[S+]([O-])Cc1cc(Nc2cc(NC3CC3)n3ncc(C#N)c3n2)ccc1C1(N)CC1` (racemic) [Example 59, (±)-5-((4-(1-Aminocyclopropyl)-3-((methylsulfinyl)methyl)phenyl)amino)-7-(cyclopropylamino)pyrazolo[1,5-a]pyrimidine-3-carbonitrile mono trifluoroacetic acid salt]: the inhibition constant (Ki) is 2.5 to 10 nM.
The value for `CN(CC1(N)CC1)c1ccc(Nc2cc(NC3CC3)n3ncc(C#N)c3n2)cc1CS(C)(=O)=O` [Example 66, 5-((4-(((1-aminocyclopropyl)methyl)(methyl)amino)-3-((methylsulfonyl)methyl)phenyl)amino)-7-(cyclopropylamino)pyrazolo[1,5-a]pyrimidine-3-carbonitrile mono trifluoroacetic acid salt] was below 2.5 nM; that for `C[S+]([O-])Cc1cc(Nc2cc(NC3CC3)n3ncc(C#N)c3n2)ccc1C1=CCNC1` (racemic) [Example 62, (±)-7-(Cyclopropylamino)-5-((4-(2,5-dihydro-1H-pyrrol-3-yl)-3-((methylsulfinyl)methyl)phenyl)amino)pyrazolo[1,5-a]pyrimidine-3-carbonitrile mono trifluoroacetic acid salt] was 2.5 to 10 nM.
Consider `C[S+]([O-])Cc1cc(Nc2cc(NC3CC3)n3ncc(C#N)c3n2)ccc1N1CC(CN)C1` (racemic) [Example 42, (±)-5-((4-(3-(Aminomethyl)azetidin-1-yl)-3-((methylsulfinyl)methyl)phenyl)amino)-7-(cyclopropylamino)pyrazolo[1,5-a]pyrimidine-3-carbonitrile], for which the inhibition constant (Ki) was below 2.5 nM.
As for `CN(CCN)c1ccc(Nc2cc(NC3CC3)n3ncc(C#N)c3n2)cc1C[S+](C)[O-]` (racemic) [Example 7, (±)-5-((4-((2-Aminoethyl)(methyl)amino)-3-((methylsulfinyl)methyl)phenyl)amino)-7-(cyclopropylamino)pyrazolo[1,5-a]pyrimidine-3-carbonitrile mono trifluoroacetic acid salt], the inhibitory constant (Ki) was below 2.5 nM.
The compound `CN(CC1(N)CC1)c1ccc(Nc2cc(NC3CC3)n3ncc(C#N)c3n2)cc1C[S+](C)[O-]` (racemic) [Example 65, (±)-5-((4-(((1-Aminocyclopropyl)methyl)(methyl)amino)-3-((methylsulfinyl)methyl)phenyl)amino)-7-(cyclopropylamino)pyrazolo[1,5-a]pyrimidine-3-carbonitrile mono trifluoroacetic acid salt] returned an inhibition constant Ki below 2.5 nM.
On to `C[S+]([O-])Cc1cc(Nc2cc(NC3CC3)n3ncc(C#N)c3n2)ccc1OCC1(N)CC1` (racemic) [Example 28, (±)-5-((4-((1-aminocyclopropyl)methoxy)-3-((methylsulfinyl)methyl)phenyl)amino)-7-(cyclopropylamino)pyrazolo[1,5-a]pyrimidine-3-carbonitrile mono trifluoroacetic acid salt], for which the Ki fell in the range of 2.5 to 10 nM.
`C[S+]([O-])Cc1cc(Nc2cc(Nc3ccccn3)n3ncc(C#N)c3n2)ccc1C1CC1` (racemic) [Example 54, (±)-5-((4-Cyclopropyl-3-((methylsulfinyl)methyl)phenyl)amino)-7-(pyridin-2-ylamino)pyrazolo[1,5-a]pyrimidine-3-carbonitrile] yielded a Ki below 2.5 nM.
Compound `C[S+]([O-])Cc1cc(Nc2cc(NC3CC3)n3ncc(C#N)c3n2)ccc1OCC(C)(C)N` (racemic) [Example 30, (±)-5-((4-(2-amino-2-methylpropoxy)-3-((methylsulfinyl)methyl)phenyl)amino)-7-(cyclopropylamino)pyrazolo[1,5-a]pyrimidine-3-carbonitrile mono trifluoroacetic acid salt] yielded an inhibition constant (Ki) of 2.5 to 10 nM.
In the case of `CN(CCN)c1ccc(Nc2nc(NC3CC3)n3ncc(C#N)c3n2)cc1C[S+](C)[O-]` (racemic) [Example 51, (±)-2-((4-((2-aminoethyl)(methyl)amino)-3-((methylsulfinyl)methyl)phenyl)amino)-4-(cyclopropylamino)pyrazolo[1,5-a][1,3,5]triazine-8-carbonitrile mono trifluoroacetic acid salt], the Ki is below 2.5 nM.
Take `C[S+]([O-])Cc1cc(Nc2cc(NC3CC3)n3ncc(C#N)c3n2)ccc1C1CCCNC1` (racemic) [Example 61, (±)-7-(Cyclopropylamino)-5-((3-((methylsulfinyl)methyl)-4-((R,S)-piperidin-3-yl)phenyl)amino)pyrazolo[1,5-a]pyrimidine-3-carbonitrile mono trifluoroacetic acid salt]: the Ki was 2.5 to 10 nM.
Compound `CNCCN(C)c1ccc(Nc2cc(NC3CC3)n3ncc(C#N)c3n2)cc1C[S+](C)[O-]` (racemic) [Example 21, (±)-7-(Cyclopropylamino)-5-((4-(methyl(2-(methylamino)ethyl)amino)-3-((methylsulfinyl)methyl)phenyl)amino)pyrazolo[1,5-a]pyrimidine-3-carbonitrile mono trifluoroacetic acid salt] showed a Ki below 2.5 nM.
Consider `CN(c1ccc(Nc2cc(NC3CC3)n3ncc(C#N)c3n2)cc1CS(C)(=O)=O)C1CNC1` [Example 45, 5-((4-(Azetidin-3-yl(methyl)amino)-3-((methylsulfonyl)methyl)phenyl)amino)-7-(cyclopropylamino)pyrazolo[1,5-a]pyrimidine-3-carbonitrile], for which the inhibition constant (Ki) fell in the range of 2.5 to 10 nM.
Compound `C[S+]([O-])Cc1cc(Nc2cc(NC3CC3)n3ncc(C#N)c3n2)ccc1CCN` (racemic) [Example 8, (±)-5-((4-(2-Aminoethyl)-3-((methylsulfinyl)methyl)phenyl)amino)-7-(cyclopropylamino)pyrazolo[1,5-a]pyrimidine-3-carbonitrile mono trifluoroacetic acid salt] had an inhibition constant (Ki) below 2.5 nM.
The same measure for `CN(CC1CC1)c1ccc(Nc2cc(NC3CC3)n3ncc(C#N)c3n2)cc1C[S+](C)[O-]` (racemic) [Example 16, (±)-7-(Cyclopropylamino)-5-((4-((cyclopropylmethyl)(methyl)amino)-3-((methylsulfinyl)methyl)phenyl)amino)pyrazolo[1,5-a]pyrimidine-3-carbonitrile]: below 2.5 nM; for `CN(c1ccc(Nc2cc(NC3CC3)n3ncc(C#N)c3n2)cc1C[S+](C)[O-])C1CC1` (racemic) [Example 36, (±)-5-((4-(Cyclopropyl(methyl)amino)-3-((methylsulfinyl)methyl)phenyl)amino)-7-(cyclopropylamino)pyrazolo[1,5-a]pyrimidine-3-carbonitrile]: below 2.5 nM; for `C[S+]([O-])Cc1cc(Nc2cc(NC3CC3)n3ncc(C#N)c3n2)ccc1N1CC[C@@H](N)C1` (stereo partly drawn) [Example 22, 5-((4-((R)-3-Aminopyrrolidin-1-yl)-3-(((R,S)-methylsulfinyl)methyl)phenyl)amino)-7-(cyclopropylamino)pyrazolo[1,5-a]pyrimidine-3-carbonitrile mono trifluoroacetic acid salt]: below 2.5 nM.
`C[S+]([O-])Cc1cc(Nc2cc(NC3CC3)n3ncc(C#N)c3n2)ccc1C#N` (racemic) [Example 6, (±)-5-((4-Cyano-3-((methylsulfinyl)methyl)phenyl)amino)-7-(cyclopropylamino)pyrazolo[1,5-a]pyrimidine-3-carbonitrile]: the inhibition constant (Ki) lay in the range of 2.5 to 10 nM.
The same measure for `C[S+]([O-])Cc1cc(Nc2cc(Nc3ccc(N)cn3)n3ncc(C#N)c3n2)ccc1N1CC[C@H](N)C1` (mixture of isomers) [Example 68, (±)-7-((5-Aminopyridin-2-yl)amino)-5-((4-((S)-3-aminopyrrolidin-1-yl)-3-((methylsulfinyl)methyl)phenyl)amino)pyrazolo[1,5-a]pyrimidine-3-carbonitrile]: below 2.5 nM.
As to `CS(=O)(=O)Cc1cc(Nc2cc(NC3CC3)n3ncc(C#N)c3n2)ccc1Cl` [Example 2, 5-((4-Chloro-3-((methylsulfonyl)methyl)phenyl)amino)-7-(cyclopropylamino)pyrazolo[1,5-a]pyrimidine-3-carbonitrile], the Ki was below 2.5 nM.
The same measure for `CS(=O)(=O)Cc1cc(Nc2cc(NC3CC3)n3ncc(C#N)c3n2)ccc1CCN` [Example 11, 5-((4-(2-Aminoethyl)-3-((methylsulfonyl)methyl)phenyl)amino)-7-(cyclopropylamino)pyrazolo[1,5-a]pyrimidine-3-carbonitrile mono trifluoroacetic acid salt]: below 2.5 nM; for `C[S+]([O-])Cc1cc(Nc2cc(NC3CC3)n3ncc(C#N)c3n2)ccc1N1CCNCC1` (racemic) [Example 14, (±)-7-(Cyclopropylamino)-5-((3-((methylsulfinyl)methyl)-4-(piperazin-1-yl)phenyl)amino)pyrazolo[1,5-a]pyrimidine-3-carbonitrile mono trifluoroacetic acid salt]: 2.5 to 10 nM.
The value for `CC(CCN)c1ccc(Nc2cc(NC3CC3)n3ncc(C#N)c3n2)cc1C[S+](C)[O-]` (racemic) [Example 64, (±)-5-((4-(R,S)-4-Aminobutan-2-yl)-3-((methylsulfinyl)methyl)phenyl)amino)-7-(cyclopropylamino)pyrazolo[1,5-a]pyrimidine-3-carbonitrile mono trifluoroacetic acid salt] was 2.5 to 10 nM.
